The values that follow come from PubChem BioAssay AID328 (DTP/NCI, 2004).

For this experiment, the system named is BDF1 mice, P388 leukemia ip, median survival T/C. The experiment is described as follows: NCI In Vivo Anticancer Drug Screen. Data for tumor model P388 Leukemia (intraperitoneal) in B6D2F1 (BDF1) mice. The note with it: endpoint: median survival time, higher = longer survival. The procedure, abridged: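 Vehicle-dosed animals serve as the reference; survival of compound-dosed, tumour-implanted mice is divided by it.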

[1] abbreviates: dose: 200.0 mg/kg/injection, schedule: Q01DX009 (ip), vehicle: saline with Tween-80.
Setting [2] is: dose: 100.0 mg/kg/injection, schedule: Q01DX009 (ip), vehicle: saline with Tween-80.
[3] abbreviates: dose: 100.0 mg/kg/injection, schedule: Q04DX003 (ip), vehicle: saline with Tween-80.
Setting [4] is: dose: 200.0 mg/kg/injection, schedule: Q04DX003 (ip), vehicle: saline with Tween-80.
The mark [5] stands for this setting: dose: 6.25 mg/kg/injection, schedule: Q01DX009 (ip), vehicle: saline with Tween-80.
[6] abbreviates: dose: 12.5 mg/kg/injection, schedule: Q01DX009 (ip), vehicle: saline with Tween-80.
The mark [7] stands for this setting: dose: 25.0 mg/kg/injection, schedule: Q01DX009 (ip), vehicle: saline with Tween-80.
Setting [8] is: dose: 50.0 mg/kg/injection, schedule: Q01DX009 (ip), vehicle: saline with Tween-80.
The mark [9] stands for this setting: dose: 25.0 mg/kg/injection, schedule: Q01DX009 (ip), vehicle: water.
The mark [10] stands for this setting: dose: 100.0 mg/kg/injection, schedule: Q01DX009 (ip), vehicle: water.
Setting [11] is: dose: 25.0 mg/kg/injection, schedule: Q01DX009 (ip), vehicle: Klucel (hydroxypropylcellulose) (HPC).
Setting [12] is: dose: 100.0 mg/kg/injection, schedule: Q01DX009 (ip), vehicle: Klucel (hydroxypropylcellulose) (HPC).

Values joined by “and” are separate entries in the source; they are usually repeats but may differ in a detail not shown here. Equal entries are not always repeated. Inconclusive results and toxic doses are left out.

Turning to `CCC(CO)NC(=O)/C=C/c1ccc(Cl)cc1` (stereo not given), the T/C under setting [1] was 91 % of control.
`CC(=O)N1C(=O)N(Cl)C(=O)C1(C)c1cccs1` (stereo not given): the T/C was 97 % of control (dose: 66.0 mg/kg/injection, schedule: Q01DX009 (ip), vehicle: saline with Tween-80); 103 % of control under setting [2]; 100 % of control under setting [1].
Take `NC(Cc1ccc(O)cc1)C(=O)OCc1ccccc1` (stereo not given): the T/C reads like this: under setting [3], 104 % of control; under setting [4], 104 % of control; (dose: 400.0 mg/kg/injection, schedule: Q04DX003 (ip), vehicle: saline with Tween-80) 100 % of control.
Consider `CCC(CC)C(=O)NC`, for which the T/C is 104 % of control (dose: 50.0 mg/kg/injection, schedule: Q01DX005 (ip), vehicle: saline with Tween-80); 104 % of control (dose: 100.0 mg/kg/injection, schedule: Q01DX005 (ip), vehicle: saline with Tween-80); 95 % of control (dose: 200.0 mg/kg/injection, schedule: Q01DX005 (ip), vehicle: saline with Tween-80).
Regarding `CC(C)Oc1ccc(C(=O)NS(=O)(=O)c2ccc(N)cc2)cc1`, the T/C is, setting by setting: (dose: 100.0 mg/kg/injection, schedule: Q01DX001 (ip), vehicle: saline) 113 % of control; (dose: 200.0 mg/kg/injection, schedule: Q01DX001 (ip), vehicle: saline) 104 % of control; (dose: 400.0 mg/kg/injection, schedule: Q01DX001 (ip), vehicle: saline) 100 % of control.
`CCCCNC(C)(C)C(SSSC(C)=O)c1ccco1` (stereo not given): the T/C runs as follows: (dose: 3.12 mg/kg/injection, schedule: Q01DX009 (ip), vehicle: saline with Tween-80) 88 % of control; under setting [5], 111 % of control; under setting [6], 102 % of control; under setting [7], 101 % of control and 102 % of control; under setting [8], 103 % of control.
Consider `O=C(O)c1c[nH]c2nccnc12`, for which the T/C was 98 % of control under setting [9]; 103 % of control (dose: 25.0 mg/kg/injection, schedule: Q04DX003 (ip), vehicle: water); 99 % of control (dose: 50.0 mg/kg/injection, schedule: Q04DX003 (ip), vehicle: water); 88 % of control under setting [10]; 103 % of control (dose: 100.0 mg/kg/injection, schedule: Q04DX003 (ip), vehicle: water); 103 % of control (dose: 200.0 mg/kg/injection, schedule: Q04DX003 (ip), vehicle: water). Under “dose: 400.0 mg/kg/injection, schedule: Q04DX003 (ip), vehicle: water”, the T/C was 92 % of control.
For the molecule `Cc1ccc2[nH]c(=S)n(-c3cccc(C(F)(F)F)c3)c(=O)c2c1`, the T/C runs as follows: under setting [7], 102 % of control; under setting [8], 92 % of control and 94 % of control; under setting [2], 102 % of control; under setting [1], 93 % of control; (dose: 400.0 mg/kg/injection, schedule: Q01DX009 (ip), vehicle: saline with Tween-80) 102 % of control.
As to `Cc1nc(N(C)C)c2cnn(-c3ccccc3)c2n1`, the T/C under setting [11] was 105 % of control; the T/C (dose: 50.0 mg/kg/injection, schedule: Q01DX009 (ip), vehicle: Klucel (hydroxypropylcellulose) (HPC)) was 105 % of control; the T/C under setting [12] is 105 % of control.
Turning to `CCN(CC)CC(O)CNC(=O)c1c2nc3c(C(=O)NCC(O)CN(CC)CC)ccc(C)c3oc-2c(C)c(=O)c1N` (stereo not given), the T/C (dose: 50.0 mg/kg/injection, schedule: Q04DX002 (ip), vehicle: saline with Tween-80) was 110 % of control; the T/C (dose: 100.0 mg/kg/injection, schedule: Q04DX002 (ip), vehicle: saline with Tween-80) was 106 % of control and 120 % of control.
In the case of `CCCCOC1OCN(c2ccc(OC)cc2)CC1(C)C` (stereo not given), the T/C by setting is: (dose: 50.0 mg/kg/injection, schedule: Q01DX009 (ip), vehicle: saline + alcohol) 114 % of control; (dose: 100.0 mg/kg/injection, schedule: Q01DX009 (ip), vehicle: saline + alcohol) 107 % of control; (dose: 200.0 mg/kg/injection, schedule: Q01DX009 (ip), vehicle: saline + alcohol) 118 % of control.
Regarding `CC(=O)OC1C(=O)C(C)(C)CSCC1(C)C` (stereo not given), the T/C by setting is: under setting [12], 104 % of control; (dose: 200.0 mg/kg/injection, schedule: Q01DX009 (ip), vehicle: Klucel (hydroxypropylcellulose) (HPC)) 95 % of control; (dose: 400.0 mg/kg/injection, schedule: Q01DX009 (ip), vehicle: Klucel (hydroxypropylcellulose) (HPC)) 104 % of control.
For the molecule `CCC(C(=O)O)c1ccccc1` (stereo not given), the T/C was 90 % of control under setting [8] and 109 % of control under setting [1].
In the case of `Cc1ccc(CBr)c2ccccc12`, the T/C is, setting by setting: under setting [5], 102 % of control; under setting [6], 114 % of control; under setting [7], 124 % of control; under setting [8], 105 % of control; under setting [2], 121 % of control.
Take `O=C1C(N2CCCC2)=C(N2CC2)C(=O)C(N2CCCC2)=C1N1CC1`: the T/C (dose: 0.25 mg/kg/injection, schedule: Q01DX009 (ip), vehicle: saline) was 172 % of control.
Take `C[n+]1ccccc1/C=C/c1cccc(O)c1`: the T/C runs as follows: (dose: 3.12 mg/kg/injection, schedule: Q01DX009 (ip), vehicle: Klucel (hydroxypropylcellulose) (HPC)) 96 % of control; (dose: 6.25 mg/kg/injection, schedule: Q01DX009 (ip), vehicle: Klucel (hydroxypropylcellulose) (HPC)) 96 % of control; (dose: 12.5 mg/kg/injection, schedule: Q01DX009 (ip), vehicle: Klucel (hydroxypropylcellulose) (HPC)) 102 % of control; under setting [11], 102 % of control.
For the molecule `COc1ccc(C(c2ccc(OC)cc2)C(Cl)(Cl)Cl)cc1`, the T/C is 104 % of control (dose: 100.0 mg/kg/injection, schedule: Q01DX001 (ip), vehicle: Klucel (hydroxypropylcellulose) (HPC)); 100 % of control (dose: 200.0 mg/kg/injection, schedule: Q01DX001 (ip), vehicle: Klucel (hydroxypropylcellulose) (HPC)); 100 % of control (dose: 400.0 mg/kg/injection, schedule: Q01DX001 (ip), vehicle: Klucel (hydroxypropylcellulose) (HPC)).
Regarding `Clc1c(Cl)c(CBr)c(Cl)c(CBr)c1Cl`, the T/C is 100 % of control (dose: 20.0 mg/kg/injection, schedule: Q01DX009 (ip), vehicle: Klucel (hydroxypropylcellulose) (HPC)); 95 % of control (dose: 40.0 mg/kg/injection, schedule: Q01DX009 (ip), vehicle: Klucel (hydroxypropylcellulose) (HPC)); 113 % of control (dose: 50.0 mg/kg/injection, schedule: Q01DX009 (ip), vehicle: saline sonified); 100 % of control (dose: 50.0 mg/kg/injection, schedule: Q04DX003 (ip), vehicle: Klucel (hydroxypropylcellulose) (HPC)); 108 % of control (dose: 88.0 mg/kg/injection, schedule: Q04DX003 (ip), vehicle: Klucel (hydroxypropylcellulose) (HPC)); 118 % of control (dose: 100.0 mg/kg/injection, schedule: Q01DX009 (ip), vehicle: saline sonified). Moreover, the T/C is, setting by setting: (dose: 100.0 mg/kg/injection, schedule: Q04DX003 (ip), vehicle: Klucel (hydroxypropylcellulose) (HPC)) 110 % of control; (dose: 132.0 mg/kg/injection, schedule: Q04DX003 (ip), vehicle: Klucel (hydroxypropylcellulose) (HPC)) 91 % of control; (dose: 132.0 mg/kg/injection, schedule: Q04DX003 (ip), vehicle: saline sonified) 122 % of control; (dose: 200.0 mg/kg/injection, schedule: Q04DX003 (ip), vehicle: saline sonified) 150 % of control.
On to `CCN(/C=C/C=C1C(=O)N(C)C(=O)N(C)C1=O)CC`, for which the T/C runs as follows: (dose: 50.0 mg/kg/injection, schedule: Q01DX009 (ip), vehicle: saline) 100 % of control; (dose: 100.0 mg/kg/injection, schedule: Q01DX009 (ip), vehicle: saline) 102 % of control; (dose: 200.0 mg/kg/injection, schedule: Q01DX009 (ip), vehicle: saline) 100 % of control.
Turning to `Clc1nc2nc(Cl)n(Cl)c2nc1Cl`, the T/C is, setting by setting: (dose: 12.5 mg/kg/injection, schedule: Q01DX006 (ip), vehicle: saline with Tween-80) 100 % of control; (dose: 25.0 mg/kg/injection, schedule: Q01DX006 (ip), vehicle: saline with Tween-80) 91 % of control; under setting [7], 86 % of control; under setting [9], 109 % of control; (dose: 50.0 mg/kg/injection, schedule: Q01DX006 (ip), vehicle: saline with Tween-80) 109 % of control; under setting [8], 86 % of control. For the same molecule, the T/C is 105 % of control (dose: 50.0 mg/kg/injection, schedule: Q04DX003 (ip), vehicle: saline with Tween-80); 111 % of control under setting [10]; 105 % of control under setting [3]; 116 % of control (dose: 200.0 mg/kg/injection, schedule: Q01DX009 (ip), vehicle: water); 112 % of control under setting [4].
